In experiment [1] the target is T1, human sphingosine-1-phosphate receptor 1 (S1P1) (Homo sapiens (Human), UniProt P21453). In words: β-Arrestin2 recruitment assay (PathHunter), S1P1 CHO-K1 cells. Format: cell-based. The conditions noted are these: for Emax: CHO-K1, efficacy (SPAN) normalized to fingolimod, read-out: hS1P1 B-arrestin2 SPAN; for hS1P1 B-arrestin2 pEC50: β-arrestin2 recruitment, S1P1 CHO-K1 cells. The protocol:
(§1) Stable clonal Chinese hamster ovary K1 (CHO-K1) cells co-expressing EA-β-arrestin2 and the human sphingosine-1-phosphate receptor 1 (NM_001400, S1P1) with a C-terminal Prolink™ tag were purchased from DiscoverX corporation (Cat #: 93-0207C2).
(§2) Cell lines were cultured in AssayComplete™ Media 6 (DiscoverX Corporation, Cat #: 920018GF2) at 37° C. and 5% CO2 in a humidified CO2 and temperature-controlled incubator. To begin assay plating, cells were washed with dulbecco's phosphate buffered saline (CellGro, Cat #: 21-031-CV) and lifted from the culturing flask by incubation (37° C., 5 min) with CellStripper (Cellgro, Cat #: 25-056-CI). […] Plated cells were incubated overnight at 37° C. and 5% CO2 in a humidified CO2 and temperature-controlled incubator. Detecting Inhibition of cAMP Production
Agonist-promoted β-arrestin2 recruitment to the sphingosine-1-phosphate 1 receptor was determined using the β-arrestin PathHunter®) Detection kit (DiscoverX Corporation, Cat #: 93-0001). […] In cells that stably express these fusion proteins, stimulation with a cognate agonist results in the interaction of […] and the Prolink™-tagged GPCR. This allows the complementation of the two β-galactosidase fragments and results in the formation of a functional enzyme with β-galactosidase activity. […] Following a 60 minute incubation at 37° C. and 5% CO2 in a humidified CO2 and temperature-controlled incubator, the components of the β-arrestin PathHunter® Detection kit were added as per the manufacturer's instructions. After an hour incubation at room temperature, plates were analyzed by a BMG PheraStar microplate reader.
(§3) The tables below include the efficacy of the compound as compared to a positive control, referred to as “SPAN”. These values are normalized to fingolimod, a known agonist of the sphingosine-1-phosphate 1 receptor. The tables also include potency values (pEC50) for modulating discrete receptor-mediated activities (inhibition of cAMP production and […] recruitment).
In general terms: Recruitment of arrestin is a read-out of receptor activation apart from second messengers.
Target sequence in this assay (P21453 whole entry, looked up): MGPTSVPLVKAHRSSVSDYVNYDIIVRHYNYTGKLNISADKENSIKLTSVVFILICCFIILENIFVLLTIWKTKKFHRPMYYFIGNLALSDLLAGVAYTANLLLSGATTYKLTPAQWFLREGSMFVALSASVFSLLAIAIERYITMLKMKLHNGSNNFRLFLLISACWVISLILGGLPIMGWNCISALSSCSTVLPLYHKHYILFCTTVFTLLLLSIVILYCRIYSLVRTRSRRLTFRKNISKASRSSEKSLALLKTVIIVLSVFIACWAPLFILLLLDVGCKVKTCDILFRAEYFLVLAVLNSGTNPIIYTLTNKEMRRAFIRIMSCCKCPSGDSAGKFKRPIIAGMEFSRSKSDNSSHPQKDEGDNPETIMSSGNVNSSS
Target sequence in this assay (P32121 whole entry partner, looked up): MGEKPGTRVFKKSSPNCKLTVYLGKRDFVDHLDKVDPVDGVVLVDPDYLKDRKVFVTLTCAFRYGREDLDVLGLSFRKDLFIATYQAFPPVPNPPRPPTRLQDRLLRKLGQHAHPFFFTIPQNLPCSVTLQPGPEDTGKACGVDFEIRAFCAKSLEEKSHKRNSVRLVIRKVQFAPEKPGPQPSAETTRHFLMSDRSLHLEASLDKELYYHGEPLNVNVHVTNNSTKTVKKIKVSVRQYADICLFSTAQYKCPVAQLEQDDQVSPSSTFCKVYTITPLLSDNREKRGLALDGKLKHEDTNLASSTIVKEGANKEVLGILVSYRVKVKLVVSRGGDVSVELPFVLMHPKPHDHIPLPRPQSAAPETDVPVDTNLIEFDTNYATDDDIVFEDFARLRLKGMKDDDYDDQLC

Experiment [2] addresses T1, human sphingosine-1-phosphate receptor 1 (S1P1). In words: Inhibition of cAMP production (HTRF cAMP HiRange), S1P1 CHO-K1 cells. The note with it: for Emax: CHO-K1, efficacy (SPAN) normalized to fingolimod, read-out: hS1P1 cAMP SPAN; for hS1P1 cAMP pEC50: inhibition of cAMP production, S1P1 CHO-K1 cells. Type of experiment: cell-based. The protocol:
as §1, §2
Target sequence in this assay (P21453 whole entry, looked up): as the sequence (P21453 whole entry, looked up) above
Agonist-promoted G-protein responses were determined by measuring changes in intracellular cAMP using the HTRF® cAMP HiRange kit (CisBio, Cat #: 62AM6PEJ) based on time-resolved fluorescence resonance energy transfer (TR-FRET) technology. […] Following a 30-minute incubation at 37° C. and 5% CO2 in a humidified CO2 and temperature-controlled incubator, the components of the cAMP HiRange kit were added as per the manufacturer's instructions. After an hour incubation at room temperature, plates were analyzed by a BMG PheraStar microplate reader.
as §3

Where only a bound is given, the exact number is not on record here.

`CCC1(CC)CC(=O)c2cc(-c3nnc(-c4cccnc4)o3)ccc2O1` [Compound 28, 2,2-diethyl-6-(5-(pyridin-3-yl)-1,3,4-oxadiazol-2-yl)chroman-4-one]: in experiment [1], the Emax is > 75% and the “hS1P1 B-arrestin2 pEC50” value is given as <5. In addition, in experiment [2], the Emax was > 75% and the “hS1P1 cAMP pEC50” value is <6.5.

With `CCC1(CC)CC(=O)c2cc(-c3nc(-c4ccc5c(c4)nnn5C(C)C)ns3)ccc2O1` [Compound 29, 2,2-diethyl-6-(3-(1-isopropyl-1H-benzo[d][1,2,3]triazol-5-yl)-1,2,4-thiadiazol-5-yl)chroman-4-one], the “hS1P1 B-arrestin2 pEC50” value in experiment [1] is listed as <5. The “hS1P1 cAMP pEC50” value in experiment [2] was <6.5.

Take `CCC1(CC)CC(=O)c2cc(-c3nc(-c4ccc(S(=O)(=O)N(C)C)cc4)no3)ccc2O1` [Compound 30, 4-(5-(2,2-diethyl-4-oxochroman-6-yl)-1,2,4-oxadiazol-3-yl)-N,N-dimethylbenzenesulfonamide]: the “hS1P1 B-arrestin2 pEC50” value in experiment [1] is on record as <5. Moreover, the “hS1P1 cAMP pEC50” value in experiment [2] was <6.5.

Regarding `CCC1(CC)CC(=O)c2cc(-c3nc(-c4ccncc4C)no3)ccc2O1` [Compound 31, 2,2-diethyl-6-(3-(3-methylpyridin-4-yl)-1,2,4-oxadiazol-5-yl)chroman-4-one], in experiment [1], the Emax is > 75% and the “hS1P1 B-arrestin2 pEC50” value is listed as >5. In experiment [2], the Emax was > 75% and the “hS1P1 cAMP pEC50” value is recorded as >6.5.

On to `CCC1(CC)CC(=O)c2cc(-c3nc(-c4ccc(C)s4)no3)ccc2O1` [Compound 34, 2,2-diethyl-6-(3-(5-methylthiophen-2-yl)-1,2,4-oxadiazol-5-yl)chroman-4-one], for which, in experiment [1], the “hS1P1 B-arrestin2 pEC50” value is reported as >5. The “hS1P1 cAMP pEC50” value in experiment [2] was <6.5.

Regarding `COc1ccccc1-c1nnc(-c2ccc3c(c2)nnn3C(C)C)o1` [Compound 35, 5-[5-(2-methoxyphenyl)-1,3,4-oxadiazol-2-yl]-1-(propan-2-yl)-1H-1,2,3-benzotriazole], the “hS1P1 B-arrestin2 pEC50” value in experiment [1] was <5. In experiment [2], the “hS1P1 cAMP pEC50” value is <6.5.

For `O=C1CC2(CCC(F)(F)CC2)Oc2ccc(-c3nc(-c4cccnc4)no3)cc21` [Compound 36, 4′,4′-difluoro-6-[3-(pyridin-3-yl)-1,2,4-oxadiazol-5-yl]-3,4-dihydrospiro[1-benzopyran-2,1′-cyclohexane]-4-one], in experiment [1], the Emax is < 75% and the “hS1P1 B-arrestin2 pEC50” value is given as <5. Further, in experiment [2], the Emax is < 75% and the “hS1P1 cAMP pEC50” value is <6.5.

`CC(C)n1nnc2cc(-c3ncc(-c4ccc(F)cc4)s3)ccc21` [Compound 37, 5-(4-fluorophenyl)-2-(1-isopropylbenzotriazol-5-yl)thiazole]: in experiment [1], the “hS1P1 B-arrestin2 pEC50” value is <5. For the same compound, the “hS1P1 cAMP pEC50” value in experiment [2] is <6.5.

`CCC1(CC)CC(=O)c2cc(-c3nc(-c4ccnc(OC)c4)no3)ccc2O1` [Compound 38, 2,2-diethyl-6-(3-(2-methoxypyridin-4-yl)-1,2,4-oxadiazol-5-yl)chroman-4-one]: in experiment [1], the Emax was > 75% and the “hS1P1 B-arrestin2 pEC50” value is on record as <5. Moreover, in experiment [2], the Emax is < 75% and the “hS1P1 cAMP pEC50” value is <6.5.

Consider `C=CCn1nc2ccc(-c3nc(-c4ccccc4)no3)cc2n1` [Compound 39, 5-(3-phenyl-1,2,4-oxadiazol-5-yl)-2-(prop-2-en-1-yl)-2H-1,2,3-benzotriazole], for which the “hS1P1 B-arrestin2 pEC50” value in experiment [1] is given as <5. The “hS1P1 cAMP pEC50” value in experiment [2] was <6.5.

For the compound `Brc1ccccc1-c1nc(-c2ccc3c(c2)nnn3C2CCCC2)no1` [Compound 40, 5-(2-bromophenyl)-3-(1-cyclopentyl-1H-benzo[d][1,2,3]triazol-5-yl)-1,2,4-oxadiazole], the “hS1P1 B-arrestin2 pEC50” value in experiment [1] was >5. The “hS1P1 cAMP pEC50” value in experiment [2] is listed as >6.5.

`O=C1CC2(CCCCC2)Oc2ccc(-c3nc(-c4cccnc4)no3)cc21` [Compound 41, 6-[3-(pyridin-3-yl)-1,2,4-oxadiazol-5-yl]-3,4-dihydrospiro[1-benzopyran-2,1′-cyclohexane]-4-one]: in experiment [1], the Emax was < 75% and the “hS1P1 B-arrestin2 pEC50” value is given as <5. In experiment [2], the Emax is < 75% and the “hS1P1 cAMP pEC50” value is reported as <6.5.

As to `C=CCn1nnc2cc(-c3noc(-c4ccccc4Br)n3)ccc21` [Compound 42, 3-(1-allyl-1H-benzo[d][1,2,3]triazol-5-yl)-5-(2-bromophenyl)-1,2,4-oxadiazole], the “hS1P1 B-arrestin2 pEC50” value in experiment [1] was <5. In experiment [2], the “hS1P1 cAMP pEC50” value is listed as <6.5.

Consider `CC(C)n1nnc2cc(-c3noc(-c4ccccc4Br)n3)ccc21` [Compound 43, 5-(2-bromophenyl)-3-(1-isopropyl-1H-benzo[d][1,2,3]triazol-5-yl)-1,2,4-oxadiazole], for which, in experiment [1], the “hS1P1 B-arrestin2 pEC50” value is >5. In experiment [2], the “hS1P1 cAMP pEC50” value is listed as >6.5.

Take `Cc1nccnc1-c1nc(-c2ccc3c(c2)nnn3C(C)C)no1` [Compound 44, 3-(1-isopropyl-1H-benzo[d][1,2,3]triazol-5-yl)-5-(3-methylpyrazin-2-yl)-1,2,4-oxadiazole]: in experiment [1], the “hS1P1 B-arrestin2 pEC50” value is on record as <5. Besides, the “hS1P1 cAMP pEC50” value in experiment [2] is <6.5.

Take `Brc1ccccc1-c1nc(-c2ccc3c(c2)nnn3Cc2ccccn2)no1` [Compound 45, 5-(2-bromophenyl)-3-(1-(pyridin-2-ylmethyl)-1H-benzo[d][1,2,3]triazol-5-yl)-1,2,4-oxadiazole]: in experiment [1], the “hS1P1 B-arrestin2 pEC50” value is <5. Further, the “hS1P1 cAMP pEC50” value in experiment [2] is listed as <6.5.

Take `Cc1ccsc1-c1noc(-c2ccc3c(c2)nnn3C2CCCC2)n1` [Compound 46, 1-cyclopentyl-5-[3-(3-methylthiophen-2-yl)-1,2,4-oxadiazol-5-yl]-1H-1,2,3-benzotriazole]: the “hS1P1 B-arrestin2 pEC50” value in experiment [1] is listed as >5. The “hS1P1 cAMP pEC50” value in experiment [2] was >6.5.

For the compound `CSc1cccc(-c2nc(-c3ccc4c(c3)nnn4C3CCCC3)no2)c1` [Compound 47, 3-(1-cyclopentyl-1H-benzo[d][1,2,3]triazol-5-yl)-5-(3-(methylthio)phenyl)-1,2,4-oxadiazole], in experiment [1], the “hS1P1 B-arrestin2 pEC50” value is given as <5. Besides, the “hS1P1 cAMP pEC50” value in experiment [2] is on record as <6.5.

With `Brc1ccccc1-c1nc(-c2ccc3c(c2)nnn3Cc2ccncc2)no1` [Compound 48, 5-(2-bromophenyl)-3-(1-(pyridin-4-ylmethyl)-1H-benzo[d][1,2,3]triazol-5-yl)-1,2,4-oxadiazole], the “hS1P1 B-arrestin2 pEC50” value in experiment [1] is given as <5. For the same compound, in experiment [2], the “hS1P1 cAMP pEC50” value is <6.5.

Consider `CC(C)n1nnc2cc(-c3nc(-c4ccc(COc5ccccc5)cc4)no3)ccc21` [Compound 49, 5-{3-[4-(phenoxymethyl)phenyl]-1,2,4-oxadiazol-5-yl}-1-(propan-2-yl)-1H-1,2,3-benzotriazole], for which, in experiment [1], the “hS1P1 B-arrestin2 pEC50” value is on record as <5. For the same compound, the “hS1P1 cAMP pEC50” value in experiment [2] is <6.5.

On to `Cc1oc(-c2ccc3c(c2)nnn3C(C)C)nc1-c1ccc(Cl)cc1` [Compound 50, 5-[4-(4-chlorophenyl)-5-methyl-1,3-oxazol-2-yl]-1-(propan-2-yl)-1H-1,2,3-benzotriazole], for which, in experiment [1], the Emax is < 75% and the “hS1P1 B-arrestin2 pEC50” value is listed as <5. For the same compound, in experiment [2], the Emax was < 75% and the “hS1P1 cAMP pEC50” value is recorded as <6.5.

For the compound `COc1cnc(-c2nc(-c3ccc4c(c3)nnn4C(C)C)no2)cn1` [Compound 51, 3-(1-isopropyl-1H-benzo[d][1,2,3]triazol-5-yl)-5-(5-methoxypyrazin-2-yl)-1,2,4-oxadiazole], the “hS1P1 B-arrestin2 pEC50” value in experiment [1] is on record as <5. The “hS1P1 cAMP pEC50” value in experiment [2] is on record as <6.5.

For the compound `Brc1ccccc1-c1nc(-c2ccc3c(c2)nnn3Cc2ccccc2)no1` [Compound 52, 3-(1-benzyl-1H-benzo[d][1,2,3]triazol-5-yl)-5-(2-bromophenyl)-1,2,4-oxadiazole], the “hS1P1 B-arrestin2 pEC50” value in experiment [1] was <5. Also, the “hS1P1 cAMP pEC50” value in experiment [2] is <6.5.

Consider `CC(C)n1nnc2cc(-c3nc(-c4ccc(OCc5ccccc5)cc4)no3)ccc21` [Compound 53, 5-{3-[4-(benzyloxy)phenyl]-1,2,4-oxadiazol-5-yl}-1-(propan-2-yl)-1H-1,2,3-benzotriazole], for which, in experiment [1], the Emax is < 75% and the “hS1P1 B-arrestin2 pEC50” value was <5. In addition, in experiment [2], the Emax was < 75% and the “hS1P1 cAMP pEC50” value is listed as <6.5.

These data come from patent publication US11912693B2, “Compounds for modulating S1P1 activity and methods of using the same” (TREVENA, INC., priority 2017, dated 2024).
